system: polymorphonuclear leucocytes from rat pleural cavity; assay: release of β-glucuronidase by polymorphonuclear leucocytes from rat pleural cavity in vitro (PAF as irritant); assay type: cell-based; settings: Dose 1 × 10^−4 mol · L^−1; Irritant 2 × 10^−7 mol · L^−1
Procedure: 1% carrageenan was injected into the right pleural cavity of Wistar rat to induce polymorphonuclear leucocytes. The cells was suspended in Dulbecoo's buffer at the concentration of 2.5×10^6 cells·ml^1. The fluid containing the compound or solvent and 250 μl of cells suspension were added in test tube and incubated in 37° C. waterbath for 15 min. Then 2.5 μl of cytochalasin B (1×10^−3 mol·L^−1) was added and the reaction was continued for 5 min. Then 2.5 μl of PAF (1×10^−4 mol·L^−1) was added and for another 5 min. The test tubes were put into ice bath to stop the reaction. The supernatant was isolated and used as the β-glucuronidase release fluid. 25 μl of the enzyme fluid, 25 μl of phenolphthalein-glucuronic acid (2.5 mmol·L^−1) and 100 μl of acetic acid buffer (0.1 mol·L^−1) were added into each well of 96-well plate which was placed into incubater and kept at 37° C.3 for 18 hr. 150 μl of NaOH (0.3 mol·L^−1) was added in each well to cease the reaction and the optical density was read at 550 nm.

| Compound | Inhibition (%) of β-glucuronidase release [%] |
| --- | --- |
| CCOC(=O)N1CCN(CCC(=O)C=Cc2cc(OC)c(OC)c(OC)c2)CC1.Cl [Compound 28, 5-[(N4-Ethoxycarbonyl)piperazyl]-1-(3,4,5-trimethoxy)phenyl-1-penten-3-one hydrochloride] | 21.8 |
| CCOC(=O)N1CCN(CCC(=O)C=Cc2ccc3c(c2)OCO3)CC1.Cl [Compound 32, 5-[(N4-Ethoxycarbonyl)piperazyl]-1-(3,4-methylenedioxyphenyl)-1-penten-3-one hydrochloride] | 46.1 |
| Cl.O=C(C=Cc1ccc2c(c1)OCO2)CCN1CCN(Cc2ccccc2)CC1 [Compound 51, 5-[(N4-Benzyl)piperazyl]-1-(3,4-methylenedioxyphenyl)-1-penten-3-one hydrochloride] | 55.1 |
| CN1CCN(CCC(=O)C=Cc2ccc3c(c2)OCO3)CC1.Cl [Compound 52, 5-[(N4-Methyl)piperazyl]-1-(3,4-methylenedioxyphenyl)-1-penten-3-one hydrochloride] | 31.2 |

same assay, conditions: Dose 1 × 10^−5 mol · L^−1; Irritant 1 × 10^−6 mol · L^−1

| Compound | Inhibition (%) of β-glucuronidase release [%] |
| --- | --- |
| 5-[(4-Ethoxycarbonyl)piperidyl]-1-(3,4-dimethoxyphenyl)-1-penten-3-one hydrochloride [Compound 4] | 28.05 |
| 5-[(N4-Benzyl)piperazyl]-1-(3,4-dimethoxyphenyl)-1-penten-3-one hydrochloride [Compound 48] | 25.87 |
| 5-[(N4-Ethoxycarbonyl)piperazyl]-1-(4-trifluoromethylphenyl)-1-penten-3-one hydrochloride [Compound 29] | 22.22 |
| 5-[N4-(3,4-Methylenedioxy(benzyl)piperazyl)]-1-(3,4,5-trimethoxy-phenyl)-1-penten-3-one hydrochloride [Compound 54] | 65.88 |
| CCOC(=O)C1CCN(CCC(=O)C=Cc2ccc(OCC)c(OC)c2)CC1.Cl [Compound 5, 5-[(4-Ethoxycarbonyl)piperidyl]-1-(3-methoxy-4-ethoxyphenyl)-1-penten-3-one hydrochloride] | 45.34 |
| CCOC(=O)C1CCN(CCC(=O)C=Cc2cc(OC)c(OC)c(OC)c2)CC1.Cl [Compound 6, 5-[(4-Ethoxycarbonyl)piperidyl]-1-(3,4,5-trimethoxyphenyl)-1-penten-3-one hydrochloride] | 39.53 |
| CCOC(=O)C1CCN(CCC(=O)C=Cc2ccc(Cl)cc2Cl)CC1.Cl [Compound 10, 5-[(4-Ethoxycarbonyl)piperidyl]-1-(2,4-dichlorophenyl)-1-penten-3-one hydrochloride] | 51.07 |
| CCOC(=O)C1CCCN(CCC(=O)C=Cc2ccc(Cl)cc2)C1.Cl (centres unmarked) [Compound 13, 5-[(3-Ethoxycarbonyl)piperidyl]-1-(4-chloro)phenyl-1-penten-3-one hydrochloride] | 20.56 |
| CCOC(=O)C1CCCN(CCC(=O)C=Cc2ccc(OC)c(O)c2)C1.Cl (centres unmarked) [Compound 14, 5-[(3-Ethoxycarbonyl)piperidyl]-1-(3-hydroxy-4-methoxyphenyl)-1-penten-3-one hydrochloride] | 36.65 |
| Cl.O=C(C=Cc1ccc(F)cc1)CCN1CCC(Cc2ccccc2)CC1 [Compound 17, 5-[(4-Benzyl)piperidyl]-1-(4-fluorophenyl)-1-penten-3-one hydrochloride] | 37.64 |
| CCCCOc1ccc(C=CC(=O)CCN2CCC(Cc3ccccc3)CC2)cc1.Cl [Compound 22, 5-[(4-Benzyl)piperidyl]-1-(4-butoxyphenyl)-1-penten-3-one hydrochloride] | 69.00 |
| CCCOc1ccc(C=CC(=O)CCN2CCC(Cc3ccccc3)CC2)cc1.Cl [Compound 22b, 5-[(4-Benzyl)piperidyl]-1-(4-propoxyphenyl)-1-penten-3-one hydrochloride] | 41.79 |
| Cl.O=C(C=Cc1ccc(Cl)cc1Cl)CCN1CCC(Cc2ccccc2)CC1 [Compound 23, 5-[(4-Benzyl)piperidyl]-1-(2,4-dichlorophenyl)-1-penten-3-one hydrochloride] | 32.27 |
| CCOC(=O)N1CCN(CCC(=O)C=Cc2ccc(Br)cc2)CC1.Cl [Compound 30, 5-[(N4-Ethoxycarbonyl)piperazyl]-1-(4-bromophenyl)-1-penten-3-one hydrochloride] | 23.54 |
| CCOC(=O)N1CCN(CCC(=O)C=Cc2ccc(OC)cc2)CC1.Cl [Compound 34d, 5-[(N4-Ethoxycarbonyl)piperazyl]-1-(4-methoxyphenyl)-1-penten-3-one hydrochloride] | 62.64 |
| CC1CN(CCC(=O)C=Cc2ccc(Br)cc2)CC(C)O1.Cl (centres unmarked) [Compound 39b, 5-(2,6-Dimethylmorpholinyl)-1-(4-bromophenyl)-1-penten-3-one hydrochloride] | 40.48 |
| COc1ccc(C=CC(=O)CCN2CC(C)OC(C)C2)cc1.Cl (centres unmarked) [Compound 39c, 5-(2,6-Dimethylmorpholinyl)-1-(4-methoxyphenyl)-1-penten-3-one hydrochloride] | 28.66 |
| COc1ccc(C=CC(=O)CCN2CCN(Cc3ccccc3)CC2)cc1.Cl [Compound 49, 5-[(N4-Benzyl)piperazyl]-1-(4-methoxyphenyl)-1-penten-3-one hydrochloride] | 43.19 |
| CC(CN1CCN(Cc2ccc3c(c2)OCO3)CC1)C(=O)C=Cc1ccc(Cl)cc1.Cl (centres unmarked) [Compound 53, 5-[N4-(3,4-Methylenedioxy(benzyl)piperazyl)]-1-(4-chlorophenyl)-1-penten-4-methyl-3-one hydrochloride] | 37.82 |
| CCOc1cc(C=CC(=O)CCN2CCN(Cc3ccc4c(c3)OCO4)CC2)ccc1OC.Cl [Compound 55, 5-[N4-(3,4-Methylenedioxy(benzyl)piperazyl)]-1-(3-ethoxy-4-methoxy-phenyl)-1-penten-3-one hydrochloride] | 27.24 |
| COc1ccccc1N1CCN(CCC(=O)C=Cc2ccc(Cl)cc2)CC1.Cl [Compound 58] | 21.31 |

same assay, conditions: Dose 1 × 10^−5 mol · L^−1; Irritant 1 × 10^−7 mol · L^−1

| Compound | Inhibition (%) of β-glucuronidase release [%] |
| --- | --- |
| CCOC(=O)C1CCN(CCC(=O)C=Cc2ccc(O)c(OC)c2)CC1.Cl [Compound 8, 5-[(4-Ethoxycarbonyl)piperidyl]-1-(3-methoxy-4-hydroxyphenyl)-1-penten-3-one hydrochloride] | 158.42 |
| CCOC(=O)C1CCCN(CCC(=O)C=Cc2ccc(OC)c(OCC)c2)C1.Cl (centres unmarked) [Compound 12, 5-[(3-Ethoxycarbonyl)piperidyl]-1-(3-ethoxy-4-methoxyphenyl)-1-penten-3-one hydrochloride] | 181.48 |
| CCOC(=O)C1CCCN(CCC(=O)C=Cc2ccc3c(c2)OCO3)C1.Cl (centres unmarked) [Compound 15, 5-[(3-Ethoxycarbonyl)piperidyl]-1-(3,4-methylenedioxyphenyl)-1-penten-3-one hydrochloride] | 141.17 |
| CCOC(=O)N1CCN(CCC(=O)C=Cc2ccc(O)cc2)CC1.Cl [Compound 24, 5-[(N4-Ethoxycarbonyl)piperazyl]-1-(4-hydroxyphenyl)-1-penten-3-one hydrochloride] | 120.85 |

same assay, conditions: Dose 1 × 10^−5 mol · L^−1; Irritant 2 × 10^−7 mol · L^−1

| Compound | Inhibition (%) of β-glucuronidase release [%] |
| --- | --- |
| Cc1ccc(C=CC(=O)CCN2CCC(Cc3ccccc3)CC2)cc1.Cl [Compound 19, 5-[(4-benzyl)piperidyl]-1-(4-methylphenyl)-1-penten-3-one hydrochloride] | 79.01 |
| Cl.O=C(C=Cc1ccc(F)cc1)CCN1CCN(Cc2ccccc2)CC1 [Compound 44a, 5-[(N4-Benzyl)piperazyl]-1-(4-fluorophenyl)-1-penten-3-one hydrochloride] | 52.46 |
| Cl.O=C(C=Cc1ccc(C(F)(F)F)cc1)CCN1CCN(Cc2ccccc2)CC1 [Compound 44b, 5-[(N4-Benzyl)piperazyl]-1-(4-trifluoromethylphenyl)-1-penten-3-one hydrochloride] | 57.93 |

same assay, conditions: Dose 1 × 10^−5 mol · L^−1; Irritant 5 × 10^−7 mol · L^−1

| Compound | Inhibition (%) of β-glucuronidase release [%] |
| --- | --- |
| CCOC(=O)C1CCN(CCC(=O)C=Cc2ccc(O)cc2)CC1.Cl [Compound 1, 5-[(4-Ethoxycarbonyl)piperidyl]-1-(4-hydroxyphenyl)-1-penten-3-one hydrochloride] | 97.87 |

same assay, conditions: Dose 2 × 10^−6 mol · L^−1; Irritant 1 × 10^−7 mol · L^−1

| Compound | Inhibition (%) of β-glucuronidase release [%] |
| --- | --- |
| CCOC(=O)C1CCN(CCC(=O)C=Cc2ccc(C#N)cc2)CC1.Cl [Compound 2, 5-[(4-Ethoxycarbonyl)piperidyl]-1-(4-cyanophenyl)-1-penten-3-one hydrochloride] | 126.36 |
| CCOC(=O)N1CCN(CCC(=O)C=Cc2ccc(C#N)cc2)CC1.Cl [Compound 34a, 5-[(N4-Ethoxycarbonyl)piperazyl]-1-(4-cyanophenyl)-1-penten-3-one hydrochloride] | 121.34 |
